Laboratory results: patent US20240226225A1 (Protagonist Therapeutics, Inc., priority 2021, published 2024)
Starred links: 1 amine or outer side, 2 acyl side, 3 side chain; linkers in the order of their positions; H or OH if unused. Positions of bridges follow the written chain, without caps; N, C: chain ends. Non-standard residues stand in square brackets, D forms with d. Residues, ends and D or L forms follow the SMILES beside them. Groups on a side chain read outwards from the residue. *: point of attachment. Ala(1H-tetrazol-5-yl) = N[C@@H](Cc1nnn[nH]1)C(=O)O; Phe(3,4-Cl2) = N[C@@H](Cc1ccc(Cl)c(Cl)c1)C(=O)O; Phe(2,4-Cl2) = N[C@@H](Cc1ccc(Cl)cc1Cl)C(=O)O; Phe(3,5-F2) = N[C@@H](Cc1cc(F)cc(F)c1)C(=O)O; C18 diacid = O=C(O)CCCCCCCCCCCCCCCCC(=O)*; Dip = N[C@H](C(=O)O)C(c1ccccc1)c1ccccc1; γGlu = O=C(O)[C@H](CCC(=O)[*:2])N[*:1]; β3hF = N[C@H](CC(=O)O)Cc1ccccc1; Isovaleryl = CC(C)CC(=O)*; AEEA = NCCOCCOCC(=O)O

Target: T1, ferroportin (Homo sapiens, UniProt Q9NP59)
T1 sequence (Q9NP59 1-571): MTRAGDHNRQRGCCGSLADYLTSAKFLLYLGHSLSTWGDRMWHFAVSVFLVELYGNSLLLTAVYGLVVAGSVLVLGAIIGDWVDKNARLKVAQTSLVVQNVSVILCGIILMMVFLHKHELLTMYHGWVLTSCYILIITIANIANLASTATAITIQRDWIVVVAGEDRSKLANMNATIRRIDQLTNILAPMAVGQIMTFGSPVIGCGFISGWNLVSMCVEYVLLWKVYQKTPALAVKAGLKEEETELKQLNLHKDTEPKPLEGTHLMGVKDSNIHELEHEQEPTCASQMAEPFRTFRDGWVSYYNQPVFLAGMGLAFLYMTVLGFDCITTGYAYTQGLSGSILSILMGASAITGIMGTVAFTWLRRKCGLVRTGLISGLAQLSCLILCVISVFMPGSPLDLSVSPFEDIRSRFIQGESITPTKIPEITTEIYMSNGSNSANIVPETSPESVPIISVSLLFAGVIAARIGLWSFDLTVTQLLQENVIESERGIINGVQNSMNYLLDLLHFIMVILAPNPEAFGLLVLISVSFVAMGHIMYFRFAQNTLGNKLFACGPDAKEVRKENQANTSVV
Test: FPN activity assay: internalization/degradation of ferroportin-GFP in stably transfected HEK293 cells, decrease in GFP fluorescence
Type: cell-based
Set-up: expressed in transfected cells
Conditions: HEK293 cells stably expressing ferroportin-GFP, at least 18 hours incubation; read-out: FPN EC50

Question: Which DC50 does the source give for `CC[C@H](C)[C@@H]1NC(=O)[C@@H](NC(=O)[C@@H]2CCCN2C(=O)[C@H](Cc2ccccc2)NC(=O)[C@H](Cc2c[nH]cn2)NC(=O)[C@@H](NC(=O)[C@H](Cc2nn[nH]n2)NC(=O)CC(C)C)[C@@H](C)O)CSSC[C@@H](C(=O)N[C@@H](CCCCN)C(N)=O)NC(=O)CNC(=O)[C@H](CCCCN)NC(=O)[C@H](CO)NC(=O)[C@H](CCCNC(=N)N)NC(=O)[C@@H]2CCCN2C(=O)[C@H](CCC(=O)O)NC(=O)[C@H](Cc2ccccc2)NC(=O)[C@H](CCCCNC(=O)COCCOCCNC(=O)COCCOCCNC(=O)CC[C@H](NC(=O)CCCCCCCCCCCCCCCCC(=O)O)C(=O)O)NC1=O` [Compd 3, Isovaleric Acid-[Tet1]-T-H-F-P-[Cys]-I-[Lys(1PEG2_1PEG2_IsoGlu_C18_Diacid)]-F-E-P-R-S-K-G-[Cys]-K-NH2] (Isovaleryl-[Ala(1H-tetrazol-5-yl)]THFPCIK([AEEA-AEEA-γGlu-C18 diacid])FEPRSKGCK-NH2; disulfide 6-16) here?
Answer: 10 to 100 nM

Question: Which DC50 does the source give for `CC[C@H](C)[C@@H]1NC(=O)[C@@H](NC(=O)[C@@H]2CCCN2C(=O)[C@H](Cc2cc(F)cc(F)c2)NC(=O)[C@H](Cc2c[nH]cn2)NC(=O)[C@@H](NC(=O)[C@H](Cc2nn[nH]n2)NC(=O)CC(C)C)[C@@H](C)O)CSSC[C@@H](C(N)=O)NC(=O)[C@@H](CCCCN)NC(=O)C[C@H](Cc2ccccc2)NC(=O)[C@H](CCCCNC(=O)COCCOCCNC(=O)COCCOCCNC(=O)CC[C@H](NC(=O)CCCCCCCCCCCCCCCCC(=O)O)C(=O)O)NC1=O` [Compd 19, Isovaleric Acid-[Tet1]-T-H-[Phe_35diF]-P-[Cys]-I-[Lys(1PEG2_1PEG2_IsoGlu_C18_Diacid)]-[bhPhe]-[(D)Lys]-[Cys]-NH2] (Isovaleryl-[Ala(1H-tetrazol-5-yl)]TH[Phe(3,5-F2)]PCIK([AEEA-AEEA-γGlu-C18 diacid])[β3hF][dK]C-NH2; disulfide 6-11) here?
Answer: 100 to 500 nM

Question: For `CC[C@H](C)[C@@H]1NC(=O)[C@@H](NC(=O)[C@@H]2CCCN2C(=O)[C@H](Cc2ccc(Cl)c(Cl)c2)NC(=O)[C@H](Cc2c[nH]cn2)NC(=O)[C@@H](NC(=O)[C@H](Cc2nn[nH]n2)NC(=O)CC(C)C)[C@@H](C)O)CSSC[C@@H](C(N)=O)NC(=O)[C@@H](CCCCN)NC(=O)C[C@H](Cc2ccccc2)NC(=O)[C@H](CCCCNC(=O)COCCOCCNC(=O)COCCOCCNC(=O)CC[C@H](NC(=O)CCCCCCCCCCCCCCCCC(=O)O)C(=O)O)NC1=O` [Compd 25, Isovaleric Acid-[Tet1]-T-H-[Phe_34diCl]-P-[Cys]-I-[Lys(1PEG2_1PEG2_IsoGlu_C18_Diacid)]-[bhPhe]-[(D)Lys]-[Cys]-NH2] (Isovaleryl-[Ala(1H-tetrazol-5-yl)]TH[Phe(3,4-Cl2)]PCIK([AEEA-AEEA-γGlu-C18 diacid])[β3hF][dK]C-NH2; disulfide 6-11), which DC50 is on record?
Answer: 100 to 500 nM

Question: For `CC[C@H](C)[C@@H]1NC(=O)[C@@H](NC(=O)[C@@H]2CCCN2C(=O)[C@H](Cc2ccc(Cl)cc2Cl)NC(=O)[C@H](Cc2c[nH]cn2)NC(=O)[C@@H](NC(=O)[C@H](Cc2nn[nH]n2)NC(=O)CC(C)C)[C@@H](C)O)CSSC[C@@H](C(N)=O)NC(=O)[C@@H](CCCCN)NC(=O)C[C@H](Cc2ccccc2)NC(=O)[C@H](CCCCNC(=O)COCCOCCNC(=O)COCCOCCNC(=O)CC[C@H](NC(=O)CCCCCCCCCCCCCCCCC(=O)O)C(=O)O)NC1=O` [Compd 26, Isovaleric Acid-[Tet1]-T-H-[Phe_24diCl]-P-[Cys]-I-[Lys(1PEG2_1PEG2_IsoGlu_C18_Diacid)]-[bhPhe]-[(D)Lys]-[Cys]-NH2] (Isovaleryl-[Ala(1H-tetrazol-5-yl)]TH[Phe(2,4-Cl2)]PCIK([AEEA-AEEA-γGlu-C18 diacid])[β3hF][dK]C-NH2; disulfide 6-11), which DC50 is on record?
Answer: 100 to 500 nM

Question: Which DC50 does the source give for `CC[C@H](C)[C@@H]1NC(=O)[C@@H](NC(=O)[C@@H]2CCCN2C(=O)[C@@H](NC(=O)[C@H](Cc2c[nH]cn2)NC(=O)[C@@H](NC(=O)[C@H](Cc2nn[nH]n2)NC(=O)CC(C)C)[C@@H](C)O)C(c2ccccc2)c2ccccc2)CSSC[C@@H](C(=O)O)NC(=O)C[C@H](Cc2ccccc2)NC(=O)[C@H](CCCCNC(=O)COCCOCCNC(=O)COCCOCCNC(=O)CC[C@H](NC(=O)CCCCCCCCCCCCCCCCC(=O)O)C(=O)O)NC1=O` [Compd 37, Isovaleric Acid-[Tet1]-T-H-[Dpa]-P-[Cys]-I-[Lys(1PEG2_1PEG2_IsoGlu_C18_Diacid)]-[bhPhe]-[Cys]] (Isovaleryl-[Ala(1H-tetrazol-5-yl)]TH[Dip]PCIK([AEEA-AEEA-γGlu-C18 diacid])[β3hF]C-OH; disulfide 6-10; C-terminus assumed) here?
Answer: > 500 nM

Question: How did the DC50 turn out when `CC[C@H](C)[C@@H]1NC(=O)[C@@H](NC(=O)[C@@H]2CCCN2C(=O)[C@@H](NC(=O)[C@H](Cc2c[nH]cn2)NC(=O)[C@@H](NC(=O)[C@H](Cc2nn[nH]n2)NC(=O)CCCN)[C@@H](C)O)C(c2ccccc2)c2ccccc2)CSSC[C@@H](C(N)=O)NC(=O)[C@@H](CCCCN)NC(=O)C[C@H](Cc2ccccc2)NC(=O)[C@H](CCCCNC(=O)COCCOCCNC(=O)COCCOCCNC(=O)CC[C@H](NC(=O)CCCCCCCCCCCCCCCCC(=O)O)C(=O)O)NC1=O` [Compd 38, Gaba-[Tet1]-T-H-[Dpa]-P-[Cys]-I-[Lys(1PEG2_1PEG2_IsoGlu_C18_Diacid)]-[bhPhe]-[(D)Lys]-[Cys]-NH2] was run?
Answer: > 500 nM

Question: For `CC[C@H](C)[C@@H]1NC(=O)[C@@H](NC(=O)[C@@H]2CCCN2C(=O)[C@@H](NC(=O)[C@H](Cc2c[nH]cn2)NC(=O)[C@@H](NC(=O)[C@H](Cc2nn[nH]n2)NC(=O)CCCCN)[C@@H](C)O)C(c2ccccc2)c2ccccc2)CSSC[C@@H](C(N)=O)NC(=O)[C@@H](CCCCN)NC(=O)C[C@H](Cc2ccccc2)NC(=O)[C@H](CCCCNC(=O)COCCOCCNC(=O)COCCOCCNC(=O)CC[C@H](NC(=O)CCCCCCCCCCCCCCCCC(=O)O)C(=O)O)NC1=O` [Compd 39, 5 AminoPentanoicAcid-[Tet1]-T-H-[Dpa]-P-[Cys]-I-[Lys(1PEG2_1PEG2_IsoGlu_C18_Diacid)]-[bhPhe]-[(D)Lys]-[Cys]-NH2], which DC50 is on record?
Answer: > 500 nM

Question: With `CC[C@H](C)[C@@H]1NC(=O)[C@@H](NC(=O)[C@@H]2CCCN2C(=O)[C@@H](NC(=O)[C@H](Cc2cnc[nH]2)NC(=O)[C@@H](NC(=O)[C@H](CC2N=NN=N2)NC(=O)c2ccccc2)[C@@H](C)O)C(c2ccccc2)c2ccccc2)CSSC[C@@H](C(N)=O)NC(=O)[C@@H](CCCCN)NC(=O)C[C@H](Cc2ccccc2)NC(=O)[C@H](CCCCNC(=O)COCCOCCNC(=O)COCCOCCNC(=O)CC[C@H](NC(=O)CCCCCCCCCCCCCCCCC(=O)O)C(=O)O)NC1=O` [Compd 42, Benzyl-[Tet1]-T-H-[Dpa]-P-[Cys]-I-[Lys(1PEG2_1PEG2_IsoGlu_C18_Diacid)]-[bhPhe]-[(D)Lys]-[Cys]-NH2] as the compound, how does the DC50 read?
Answer: 10 to 100 nM

Question: With `CCCCCCCCCCCCCCCC(=O)NCCOCCOCCOCCOCCOCCOCCOCCOCCOCCOCCOCCOCCC(=O)NCCCC[C@@H]1NC(=O)[C@H](Cc2ccccc2)NC(=O)[C@H](CCCCN)NC(=O)[C@H]([C@@H](C)CC)NC(=O)[C@@H](NC(=O)[C@@H]2CCCN2C(=O)[C@H](Cc2ccccc2)NC(=O)[C@H](Cc2c[nH]cn2)NC(=O)[C@@H](NC(=O)[C@H](CC(=O)O)NC(=O)CC(C)C)[C@@H](C)O)CSSC[C@@H](C(=O)N[C@@H](CCCCN)C(N)=O)NC(=O)CNC(=O)[C@H](CCCCN)NC(=O)[C@H](CO)NC(=O)[C@H](CCCNC(=N)N)NC(=O)[C@@H]2CCCN2C1=O` [compound 1, reference compound] as the compound, how does the DC50 read?
Answer: 10 to 100 nM
